Data taken from US6982348B2, “Aminoethanol derivatives” (Takeda Pharmaceutical Company Limited, priority 2001, dated 2006).

Row | melting point [°C] | SMILES
1 | 155 to 156 | O=C(N[C@H](Cc1ccc(C(F)(F)F)cc1)[C@@H](O)c1ccc(F)cc1)c1cccc2c1OCCCO2 (racemic) [Example 113, N-[(1RS,2SR)-2-(4-fluorophenyl)-2-hydroxy-1-[4-(trifluoromethyl)benzyl]ethyl]-3,4-dihydro-2H-1,5-benzodioxepine-6-carboxamide]
2 | 151 to 152 | O=C(N[C@H](Cc1ccc(C(F)(F)F)cc1)[C@@H](O)c1ccc(F)cc1)OCc1ccccc1 (racemic) [Example 114, benzyl N-[(1RS,2SR)-2-(4-fluorophenyl)-2-hydroxy-1-[4-(trifluoromethyl)benzyl]ethyl]carbamate]
3 | 143 to 144 | CCOC(=O)N[C@H](Cc1ccc(C(F)(F)F)cc1)[C@@H](O)c1ccc(F)cc1 (racemic) [Example 115, ethyl N-[(1RS,2SR)-2-(4-fluorophenyl)-2-hydroxy-1-[4-(trifluoromethyl)benzyl]ethyl]carbamate]
4 | 112 to 113 | CC(C)(C)COC(=O)N[C@H](Cc1ccc(C(F)(F)F)cc1)[C@@H](O)c1ccc(F)cc1 (racemic) [Example 116, neopentyl N-[(1RS,2SR)-2-(4-fluorophenyl)-2-hydroxy-1-[4-(trifluoromethyl)benzyl]ethyl]carbamate]
5 | 176 to 177 | O=S(=O)(N[C@H](Cc1ccc(C(F)(F)F)cc1)[C@@H](O)c1ccc(F)cc1)c1cccc2ccccc12 (racemic) [Example 117, N-((1RS,2SR)-2-(4-fluorophenyl)-2-hydroxy-1-((4-(trifluoromethyl)phenyl)methyl)ethyl)-1-naphthalenesulfonamide]
6 | 222 to 223 | O=C(Nc1cccc2ccccc12)N[C@H](Cc1ccc(C(F)(F)F)cc1)[C@@H](O)c1ccc(F)cc1 (racemic) [Example 118, N-((1RS,2SR)-2-(4-fluorophenyl)-2-hydroxy-1-((4-(trifluoromethyl)phenyl)methyl)ethyl)-N′-(1-naphthalenyl)urea]
7 | 160 to 161 | O=C(Nc1ccc(C(F)(F)F)cc1)N[C@H](Cc1ccc(C(F)(F)F)cc1)[C@@H](O)c1ccc(F)cc1 (racemic) [Example 119, N-((1RS,2SR)-2-(4-fluorophenyl)-2-hydroxy-1-((4-(trifluoromethyl)phenyl)methyl)ethyl)-N′-(4-(trifluoromethyl)phenyl)urea]
8 | 196 to 197 | CN(C(=O)c1cccc2ccccc12)[C@H](Cc1ccc(C(F)(F)F)cc1)[C@@H](O)c1ccc(F)cc1 (racemic) [Example 121, N-((1RS,2SR)-2-(4-fluorophenyl)-2-hydroxy-1-((4-(trifluoromethyl)phenyl)methyl)ethyl)-N-methyl-1-naphthalenecarboxamide]
9 | 149 to 150 | CC1=Cc2c(cccc2C(=O)N[C@H](Cc2cccc(OC(F)(F)C(F)F)c2)[C@@H](O)c2ccc(F)cc2)CCC1 (racemic) [Example 127, N-[(1RS,2SR)-2-(4-fluorophenyl)-2-hydroxy-1-[3-(1,1,2,2-tetrafluoroethoxy)benzyl]ethyl]-8-methyl-6,7-dihydro-5H-benzo[a]cycloheptene-1-carboxamide]
10 | 147 to 148 | O=C(N[C@H](Cc1cccc(OC(F)(F)C(F)F)c1)[C@@H](O)c1ccc(F)cc1)c1cccc2c1OCCCO2 (racemic) [Example 128, N-[(1RS,2SR)-2-(4-fluorophenyl)-2-hydroxy-1-[3-(1,1,2,2-tetrafluoroethoxy)benzyl]ethyl]-3,4-dihydro-2H-1,5-benzodioxepine-6-carboxamide]
11 | 113 to 114 | CCOC(=O)N[C@H](Cc1cccc(OC(F)(F)C(F)F)c1)[C@@H](O)c1ccc(F)cc1 (racemic) [Example 129, ethyl N-[(1RS,2SR)-2-(4-fluorophenyl)-2-hydroxy-1-[3-(1,1,2,2-tetrafluoroethoxy)benzyl]ethyl]carbamate]
